Data published in ChEMBL document CHEMBL5705899 (Biochem J, 2014).
The source made the active and inactive calls.

Key:
[1] = target: Mitogen-activated protein kinase kinase kinase 1 (Homo sapiens) (UniProt Q13233); test: Inhibition of recombinant human N-terminal GST/C-terminal His6-tagged MEKK1 ((877 to 1563 residues) expressed in Escherichia coli assessed as remaining activity at 1 uM using MBP as substrate incubated for 30 mins in presence of [gamma-33P]ATP by filter binding method relative to control
[2] = target: Mitogen-activated protein kinase 7 (Homo sapiens) (UniProt Q13164); test: Inhibition of recombinant human N-terminal His6-tagged ERK5 (1 to 816 residues) expressed in baculovirus infected Sf21 cells assessed as remaining activity at 1 uM using MBP as substrate incubated for 30 mins in presence of [gamma-33P]ATP by filter binding method relative to control
[3] = target: cAMP-dependent protein kinase catalytic subunit PRKX (Homo sapiens) (UniProt P51817); test: Inhibition of human PRKX at 1 uM using RBER-GSK3 as substrate in presence of 33P-ATP by ProQinase assay
[4] = target: cGMP-dependent protein kinase 2 (Homo sapiens) (UniProt Q13237); test: Inhibition of human PRKG2 at 1 uM using RBER-GSK3 as substrate in presence of 33P-ATP by ProQinase assay
[5] = target: Serine/threonine-protein kinase WNK1 (Homo sapiens) (UniProt Q9H4A3); test: Inhibition of human WNK1 at 1 uM using 3xChocktide-PKC as substrate in presence of 33P-ATP by ProQinase assay
[6] = system: PI3-kinase p110-alpha/p85-alpha (Homo sapiens), P27986+P42336 [E545K]; test: Inhibition of recombinant human N-terminal His6-tagged PI3Kalpha E545K mutant (2 to 1068 residues)/p85A (1 to 724 residues) expressed in baculovirus expression system at 1 uM using diC8 PIP2 as substrate incubated for 80 mins by ADP-Glo assay
[7] = target: Tyrosine-protein kinase Fes/Fps (Homo sapiens) (UniProt P07332); test: Inhibition of human FES at 1 uM using polyEY as substrate in presence of 33P-ATP by ProQinase assay
Tyrosine-protein kinase Fes/Fps (Homo sapiens), sequence (P07332 whole entry): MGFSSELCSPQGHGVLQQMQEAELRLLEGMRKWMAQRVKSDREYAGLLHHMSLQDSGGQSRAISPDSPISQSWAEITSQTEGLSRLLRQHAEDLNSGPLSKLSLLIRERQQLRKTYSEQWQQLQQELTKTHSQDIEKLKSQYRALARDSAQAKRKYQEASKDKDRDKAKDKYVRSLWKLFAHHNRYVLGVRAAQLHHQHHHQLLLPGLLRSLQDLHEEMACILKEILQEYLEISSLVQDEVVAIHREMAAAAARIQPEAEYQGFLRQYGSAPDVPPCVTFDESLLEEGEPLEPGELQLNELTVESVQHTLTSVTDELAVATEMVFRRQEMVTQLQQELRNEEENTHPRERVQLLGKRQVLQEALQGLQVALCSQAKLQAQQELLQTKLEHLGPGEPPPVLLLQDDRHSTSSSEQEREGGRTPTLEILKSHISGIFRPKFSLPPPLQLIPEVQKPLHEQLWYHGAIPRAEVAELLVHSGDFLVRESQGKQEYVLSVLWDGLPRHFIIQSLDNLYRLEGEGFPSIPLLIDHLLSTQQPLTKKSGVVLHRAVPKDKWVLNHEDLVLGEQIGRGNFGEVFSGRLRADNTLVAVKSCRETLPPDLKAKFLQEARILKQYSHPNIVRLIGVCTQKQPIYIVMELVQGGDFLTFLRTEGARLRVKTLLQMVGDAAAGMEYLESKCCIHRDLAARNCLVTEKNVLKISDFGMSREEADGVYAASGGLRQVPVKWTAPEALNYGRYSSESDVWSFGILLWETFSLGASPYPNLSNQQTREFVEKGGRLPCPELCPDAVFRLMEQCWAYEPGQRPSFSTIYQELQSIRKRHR

[8] = target: Serine/threonine-protein kinase N2 (Homo sapiens) (UniProt Q16513); test: Inhibition of human PRK2 at 1 uM using RBER-CHKtide as substrate in presence of 33P-ATP by ProQinase assay
Serine/threonine-protein kinase N2 (Homo sapiens), sequence (Q16513 whole entry, looked up): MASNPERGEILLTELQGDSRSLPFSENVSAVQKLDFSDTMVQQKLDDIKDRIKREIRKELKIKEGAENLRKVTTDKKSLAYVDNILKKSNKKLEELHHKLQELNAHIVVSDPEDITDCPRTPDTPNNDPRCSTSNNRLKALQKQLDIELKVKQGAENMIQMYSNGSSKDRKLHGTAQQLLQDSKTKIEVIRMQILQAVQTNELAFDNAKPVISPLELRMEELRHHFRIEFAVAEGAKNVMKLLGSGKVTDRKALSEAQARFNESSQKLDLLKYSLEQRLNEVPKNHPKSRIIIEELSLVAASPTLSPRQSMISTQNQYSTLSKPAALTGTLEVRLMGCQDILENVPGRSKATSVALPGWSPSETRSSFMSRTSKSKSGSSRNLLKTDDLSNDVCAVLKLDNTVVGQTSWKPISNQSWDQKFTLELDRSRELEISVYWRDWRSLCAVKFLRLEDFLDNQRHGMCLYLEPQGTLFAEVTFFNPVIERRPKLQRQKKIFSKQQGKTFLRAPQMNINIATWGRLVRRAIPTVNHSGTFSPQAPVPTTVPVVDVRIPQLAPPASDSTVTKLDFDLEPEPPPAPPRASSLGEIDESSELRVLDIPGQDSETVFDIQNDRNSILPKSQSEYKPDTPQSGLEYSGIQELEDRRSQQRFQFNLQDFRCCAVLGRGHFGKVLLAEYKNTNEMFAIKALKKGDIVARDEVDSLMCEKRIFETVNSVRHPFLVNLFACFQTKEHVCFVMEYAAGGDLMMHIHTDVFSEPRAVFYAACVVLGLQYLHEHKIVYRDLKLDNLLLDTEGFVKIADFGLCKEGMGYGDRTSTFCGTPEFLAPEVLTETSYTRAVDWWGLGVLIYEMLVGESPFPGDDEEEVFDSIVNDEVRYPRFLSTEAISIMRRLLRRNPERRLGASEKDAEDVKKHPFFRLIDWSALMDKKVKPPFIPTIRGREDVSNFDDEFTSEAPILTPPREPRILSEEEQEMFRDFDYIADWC

[9] = target: Mitogen-activated protein kinase 13 (Homo sapiens) (UniProt O15264); test: Inhibition of human p38delta at 1 uM using RBER-CHKtide as substrate in presence of 33P-ATP by ProQinase assay
[10] = target: Epidermal growth factor receptor (Homo sapiens) (UniProt P00533); test: Inhibition of human EGFR at 1 uM using RBER-CHKtide as substrate in presence of 33P-ATP by ProQinase assay
[11] = target: Serine/threonine-protein kinase Chk2 (Homo sapiens) (UniProt O96017); test: Inhibition of human CHK2 at 1 uM using bio-4xCHKT as substrate in presence of 33P-ATP by ProQinase assay
Serine/threonine-protein kinase Chk2 (Homo sapiens), sequence (O96017 whole entry): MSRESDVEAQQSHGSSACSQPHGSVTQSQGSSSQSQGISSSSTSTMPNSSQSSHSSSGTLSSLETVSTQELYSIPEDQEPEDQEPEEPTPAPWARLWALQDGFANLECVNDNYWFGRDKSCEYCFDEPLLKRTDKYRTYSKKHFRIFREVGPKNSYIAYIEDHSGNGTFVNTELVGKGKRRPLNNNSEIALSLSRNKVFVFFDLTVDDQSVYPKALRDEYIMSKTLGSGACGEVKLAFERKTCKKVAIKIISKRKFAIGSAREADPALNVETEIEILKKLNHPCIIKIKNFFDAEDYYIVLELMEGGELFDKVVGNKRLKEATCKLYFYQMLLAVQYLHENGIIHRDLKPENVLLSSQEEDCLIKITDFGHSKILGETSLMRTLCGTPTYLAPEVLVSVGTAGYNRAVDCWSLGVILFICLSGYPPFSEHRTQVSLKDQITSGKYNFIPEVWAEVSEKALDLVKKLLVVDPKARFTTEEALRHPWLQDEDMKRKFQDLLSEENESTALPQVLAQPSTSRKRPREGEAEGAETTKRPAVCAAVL

[12] = target: Serine/threonine-protein kinase PAK 2 (Homo sapiens) (UniProt Q13177); test: Inhibition of human PAK2 at 1 uM using bio-4xCHKT as substrate in presence of 33P-ATP by ProQinase assay
[13] = target: Death-associated protein kinase 1 (Homo sapiens) (UniProt P53355); test: Inhibition of human DAPK1 at 1 uM using RBER-GSK3 as substrate in presence of 33P-ATP by ProQinase assay
[14] = target: Serine/threonine-protein kinase Chk1 (Homo sapiens) (UniProt O14757); test: Inhibition of human CHK1 at 1 uM using RBER-CHKtide as substrate in presence of 33P-ATP by ProQinase assay
Serine/threonine-protein kinase Chk1 (Homo sapiens), sequence (O14757 whole entry): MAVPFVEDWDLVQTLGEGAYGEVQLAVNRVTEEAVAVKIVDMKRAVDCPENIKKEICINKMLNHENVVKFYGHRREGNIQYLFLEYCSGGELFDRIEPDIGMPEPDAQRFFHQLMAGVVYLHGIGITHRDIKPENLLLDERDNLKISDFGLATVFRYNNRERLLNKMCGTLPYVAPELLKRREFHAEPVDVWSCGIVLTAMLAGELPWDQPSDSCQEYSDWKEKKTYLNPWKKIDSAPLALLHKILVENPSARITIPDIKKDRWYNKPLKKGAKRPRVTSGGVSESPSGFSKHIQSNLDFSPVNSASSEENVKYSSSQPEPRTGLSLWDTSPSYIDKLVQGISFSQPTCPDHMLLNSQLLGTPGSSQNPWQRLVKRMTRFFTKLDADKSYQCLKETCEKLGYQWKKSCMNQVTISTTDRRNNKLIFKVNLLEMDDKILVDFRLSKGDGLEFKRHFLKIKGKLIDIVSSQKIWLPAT

[15] = target: Tyrosine-protein kinase Yes (Homo sapiens) (UniProt P07947); test: Inhibition of human YES at 1 uM using polyEY as substrate in presence of 33P-ATP by ProQinase assay
[16] = target: Myosin light chain kinase 2, skeletal/cardiac muscle (Homo sapiens) (UniProt Q9H1R3); test: Inhibition of human MYLK2 at 1 uM using RB-S6P as substrate in presence of 33P-ATP by ProQinase assay
[17] = target: Lymphokine-activated killer T-cell-originated protein kinase (Homo sapiens) (UniProt Q96KB5); test: Inhibition of human PBK at 1 uM using histon H1 as substrate in presence of 33P-ATP by ProQinase assay
[18] = target: Protein kinase C alpha type (Homo sapiens) (UniProt P17252); test: Inhibition of human PKCalpha at 1 uM using 3xChocktide-PKC as substrate in presence of 33P-ATP by ProQinase assay
[19] = target: Insulin-like growth factor 1 receptor (Homo sapiens) (UniProt P08069); test: Inhibition of recombinant human N-terminal His6-tagged IGF1R (954 to 1367 residues) expressed in baculovirus infected Sf21 cells assessed as remaining activity at 1 uM using KKKSPGEYVNIEFG as substrate incubated for 30 mins in presence of [gamma-33P]ATP by filter binding method relative to control
[20] = target: Tyrosine-protein kinase ABL1 (Homo sapiens) (UniProt P00519); test: Inhibition of human ABL1 at 1 uM using poly(Ala,Glu,Lys,Tyr) as substrate in presence of 33P-ATP by ProQinase assay
[21] = target: Mitogen-activated protein kinase 11 (Homo sapiens) (UniProt Q15759); test: Inhibition of recombinant human N-terminal GST-tagged P38beta (1 to 364 residues) expressed in Escherichia coli assessed as remaining activity at 1 uM using MBP as substrate incubated for 30 mins in presence of [gamma-33P]ATP by filter binding method relative to control
[22] = target: Tyrosine-protein kinase BTK (Homo sapiens) (UniProt Q06187); test: Inhibition of human BTK at 1 uM using polyEY as substrate in presence of 33P-ATP by ProQinase assay
Tyrosine-protein kinase BTK (Homo sapiens), sequence (Q06187 whole entry): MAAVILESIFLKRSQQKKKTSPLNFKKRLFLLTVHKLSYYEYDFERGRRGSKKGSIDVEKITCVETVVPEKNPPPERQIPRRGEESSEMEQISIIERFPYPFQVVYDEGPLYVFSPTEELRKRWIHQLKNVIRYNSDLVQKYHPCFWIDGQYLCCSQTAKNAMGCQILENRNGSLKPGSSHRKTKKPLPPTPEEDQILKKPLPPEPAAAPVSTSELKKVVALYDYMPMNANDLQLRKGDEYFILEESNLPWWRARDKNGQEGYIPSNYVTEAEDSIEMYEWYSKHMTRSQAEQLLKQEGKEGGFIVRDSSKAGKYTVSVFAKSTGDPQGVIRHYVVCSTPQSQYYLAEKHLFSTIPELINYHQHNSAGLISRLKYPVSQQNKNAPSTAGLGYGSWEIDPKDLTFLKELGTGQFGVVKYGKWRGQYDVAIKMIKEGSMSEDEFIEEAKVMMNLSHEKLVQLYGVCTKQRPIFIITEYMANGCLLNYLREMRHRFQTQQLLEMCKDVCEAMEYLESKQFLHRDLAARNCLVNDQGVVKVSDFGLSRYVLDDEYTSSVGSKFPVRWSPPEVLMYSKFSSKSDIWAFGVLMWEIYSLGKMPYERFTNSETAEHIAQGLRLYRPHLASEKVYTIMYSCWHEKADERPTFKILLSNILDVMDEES

[23] = target: Serine/threonine-protein kinase DCLK2 (Homo sapiens) (UniProt Q8N568); test: Inhibition of human DCAMKL2 at 1 uM using RBER-CHKtide as substrate in presence of 33P-ATP by ProQinase assay
[24] = system: Dual specificity mitogen-activated protein kinase kinase 6 (Homo sapiens), P52564 [S207D,T211D]; test: Inhibition of human MKK6 S207D/T211D double mutant at 1 uM using p38-alpha KA as substrate in presence of 33P-ATP by ProQinase assay
[25] = target: Ribosomal protein S6 kinase alpha-3 (Homo sapiens) (UniProt P51812); test: Inhibition of recombinant human N-terminal His6-tagged RSK2 (2 to 740 residues) expressed in baculovirus infected Sf21 cells assessed as remaining activity at 1 uM using KKLNRTLSVA as substrate incubated for 30 mins in presence of [gamma-33P]ATP by filter binding method relative to control
Ribosomal protein S6 kinase alpha-3 (Homo sapiens), sequence (P51812 whole entry, the tested form may be a part): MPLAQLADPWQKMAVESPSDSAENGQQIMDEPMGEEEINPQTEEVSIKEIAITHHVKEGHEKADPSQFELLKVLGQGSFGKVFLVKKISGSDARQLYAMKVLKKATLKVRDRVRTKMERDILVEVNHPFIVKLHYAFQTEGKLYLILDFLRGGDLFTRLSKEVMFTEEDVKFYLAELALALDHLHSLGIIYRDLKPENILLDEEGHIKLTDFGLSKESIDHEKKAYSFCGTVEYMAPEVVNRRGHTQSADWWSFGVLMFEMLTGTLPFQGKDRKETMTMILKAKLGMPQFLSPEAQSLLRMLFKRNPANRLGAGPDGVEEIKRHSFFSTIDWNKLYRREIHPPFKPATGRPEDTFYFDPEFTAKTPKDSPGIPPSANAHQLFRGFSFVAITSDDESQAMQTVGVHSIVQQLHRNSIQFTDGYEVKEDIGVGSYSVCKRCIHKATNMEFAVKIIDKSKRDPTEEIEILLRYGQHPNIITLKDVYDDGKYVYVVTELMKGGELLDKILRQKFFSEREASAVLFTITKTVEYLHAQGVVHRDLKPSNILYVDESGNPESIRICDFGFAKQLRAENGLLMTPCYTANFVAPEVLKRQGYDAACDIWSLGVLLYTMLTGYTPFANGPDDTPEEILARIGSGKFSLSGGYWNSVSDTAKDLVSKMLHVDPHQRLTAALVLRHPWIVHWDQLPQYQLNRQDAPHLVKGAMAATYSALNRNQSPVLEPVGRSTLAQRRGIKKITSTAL

CC(C)(O)CNc1ncc(-c2ccnc(Nc3ccnc(Cl)c3)n2)c(CC2CC2)n1
inactive: inhibition [3] | inhibition [4] | inhibition [5] | inhibition [6] | inhibition [7] | inhibition [8] | inhibition [9] | inhibition [10] | inhibition [11] | inhibition [12] | inhibition [13] | inhibition [14] | inhibition [15] | inhibition [16] | inhibition [17] | inhibition [18] | inhibition [20] | inhibition [22] | inhibition [23] | inhibition [24]
104%: Activity [2]
115%: Activity [21]
103%: Activity [25]
109%: Activity [1]
101%: Activity [19]
